# Assay results taken from patent US20050282814A1, “Vasculostatic agents and methods of use thereof” (TargeGen, Inc., priority 2002, published 2005).
# Tests used:
# VEGF-induced edema = assay: Miles assay, VEGF-induced edema; format: in vivo, Sprague-Dawley rats; conditions: general statement in description
# Procedure: A rodent model of vascular edema, the Miles assay, was used to screen compounds for their ability to inhibit VEGF-induced edema.
# Sprague-Dawley rats were first injected IV with vehicle alone or test agent, followed by IV injection of Evans blue dye, followed by intradermal injections of saline and VEGF (200 ng/injection site) along both shaved flanks. After 45 min, intradermal injection sites were photographed and then scored by a blinded observer for extravasation of Evans blue dye into the dermis (dermal bluing) according to a 4 point scoring system (3=maximal bluing, ≧75% of response in vehicle-treated animals; 2=medium bluing, >25% but <75% of vehicle-treated animals; 1=minimal bluing, ≦25% of vehicle-treated animals; 0=bluing equivalent to saline injection sites on same animal). Individual scores for 4 injection sites (from 2 separate animals) were summed and are shown as a scale of 0-12, with a lower score indicating the greater anti-edema activity; note that all vehicle-treated groups score a value of 12, based on the scoring system outlined above.
# acute myocardial infarct = assay: Rat acute myocardial infarct model (60 min LAD occlusion, reperfusion); format: in vivo, Sprague-Dawley rats; conditions: rat
# Procedure: A rodent model of acute myocardial infarct, in which the proximal left anterior descending coronary artery (LAD) is occluded for 60 min followed by reperfusion, was used to determine whether test agents reduced infarct size at 24 hours.
# Myocardial infarcts were created in Sprague-Dawley rats (200-300 g body weight) by a 60 min occlusion of the LAD followed by LAD reperfusion. At 90 min post-reperfusion, either vehicle alone or test agents were injected IV. At 24 hr post-treatment, the ischemic zone (area at-risk, AAR) was delineated by re-ligation of the LAD followed by IV injection of alkali blue dye, after which hearts were sectioned along the short axis and stained using triphenyltetrazolium chloride to delineate viable from infarcted myocardium. Photographic images were then analyzed using morphometric software to calculate infarct area as a percent of the at-risk area.
# The following studies were performed as described above, except that the timing of 3-[2,4-diamino-6-(3-hydroxyphenyl)pteridin-7-yl] phenol dihydrochloride salt administration (at 0.1 mg/kg) was varied. In one group, 3-[2,4-diamino-6-(3-hydroxyphenyl)pteridin-7-yl] phenol dihydrochloride salt was administered at both 60 and 240 min post-occlusion.
# In a porcine MI model (90 min of LAD occlusion followed by complete reperfusion), a single 0.3 mg/kg IV bolus delivered 30 min post-reperfusion reduced infarct size by […] vs. controls (40% vs. 56%, N=12-13, P=0.03).
# [1] = target: T1, human p120γ subunit of PI3K (Homo sapiens, UniProt P48736); assay: PI3K p120γ enzymatic activity at two concentrations (Upstate Group); format: biochemical; conditions: 100% = no inhibition, 0% = complete inhibition
# T1 construct: Upstate Group, Charlottesville, Va; (ran the assay under contract)
# T1 sequence (P48736 whole entry): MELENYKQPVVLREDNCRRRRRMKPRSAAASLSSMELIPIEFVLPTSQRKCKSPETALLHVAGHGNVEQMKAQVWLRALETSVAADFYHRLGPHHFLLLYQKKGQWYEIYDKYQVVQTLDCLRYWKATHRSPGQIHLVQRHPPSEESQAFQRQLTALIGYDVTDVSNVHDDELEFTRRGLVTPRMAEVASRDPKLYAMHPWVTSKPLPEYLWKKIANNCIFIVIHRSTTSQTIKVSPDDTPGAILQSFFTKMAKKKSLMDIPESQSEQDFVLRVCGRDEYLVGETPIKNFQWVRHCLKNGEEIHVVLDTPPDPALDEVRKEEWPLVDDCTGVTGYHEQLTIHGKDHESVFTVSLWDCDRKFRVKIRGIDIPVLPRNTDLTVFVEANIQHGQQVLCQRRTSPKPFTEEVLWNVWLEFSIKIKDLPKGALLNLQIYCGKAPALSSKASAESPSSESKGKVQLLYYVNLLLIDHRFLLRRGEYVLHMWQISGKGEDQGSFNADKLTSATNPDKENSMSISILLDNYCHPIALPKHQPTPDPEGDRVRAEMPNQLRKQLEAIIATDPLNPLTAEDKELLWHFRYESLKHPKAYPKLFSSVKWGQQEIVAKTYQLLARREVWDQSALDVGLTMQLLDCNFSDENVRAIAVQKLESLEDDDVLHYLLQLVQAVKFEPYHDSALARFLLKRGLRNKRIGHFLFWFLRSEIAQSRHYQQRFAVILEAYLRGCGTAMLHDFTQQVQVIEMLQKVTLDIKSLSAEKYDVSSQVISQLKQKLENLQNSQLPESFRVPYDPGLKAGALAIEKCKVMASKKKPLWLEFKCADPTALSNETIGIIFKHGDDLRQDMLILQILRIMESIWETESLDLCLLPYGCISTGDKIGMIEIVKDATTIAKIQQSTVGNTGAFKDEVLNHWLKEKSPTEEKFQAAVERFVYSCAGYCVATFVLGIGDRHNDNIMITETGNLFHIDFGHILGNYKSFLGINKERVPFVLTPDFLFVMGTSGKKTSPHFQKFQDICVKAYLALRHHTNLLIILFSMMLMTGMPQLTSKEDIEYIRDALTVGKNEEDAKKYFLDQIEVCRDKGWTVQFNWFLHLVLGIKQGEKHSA
# Procedure: The ability of compounds to inhibit the activity of PI3K kinase was determined using biochemical assays. In a first assay, compounds were tested at two concentrations (0.5 and 5 μM) for their ability to inhibit enzymatic activity of the human p120γ subunit of PI3K (the assay being performed under contract by Upstate Group, Charlottesville, Va.).
# [2] = system: VEGF-induced Akt kinase phosphorylation; assay: VEGF-induced Akt phosphorylation in lung, Western blot; format: in vivo, Sprague Dawley rats
# Procedure: The ability of compounds to impact PI3K activity in vivo was assessed by examining compound influence on vascular endothelial growth factor (VEGF)-induced Akt kinase phosphorylation (VEGF stimulation being an inducer of PI3K activity, and Akt kinase being a direct target of PI3K). Sprague Dawley rats were first injected intravenously (iv) with either vehicle or test compound at 5 mgfkg, and then 30, 60 or 120 min later injected iv with VEGF. Five minutes later, lungs were harvested and used to generate tissue lysates, which were then probed for phosphorylated Akt using Western blot technology; non-phosphorylated Akt was also probed in the same blots as a loading control. In other studies, test compounds was dosed at either 0.5 or 5 mg/kg, and VEGF delivered 60 min later, in order to assess the dose-response relationship of a compound's activities.
# [3] = system: dextran-induced inflammatory edema; assay: Dextran-induced paw inflammatory edema; format: in vivo, Sprague Dawley rats; conditions: 5 mg/kg iv 30 min before dextran; 3 hours
# Procedure: (§1) In order to determine the influence of compounds on the development of inflammation, Sprague Dawley rats were first injected intravenously with either vehicle or test compound at 5 mg/kg, and then 30 min later either PBS (as a control), dextran or platelet activating factor (PAF) was injected into the plantar surface of the hindlimbs, dextran and PAF being known to induce localized inflammatory responses marked by edema. Three hours later, paw dimensions were measured using a caliper and paw volumes calculated; data are shown as the increase in paw volume (mm^3) as compared to controls (paws injected with PBS).
# [4] = system: PAF-induced inflammatory edema; assay: PAF-induced paw inflammatory edema; format: in vivo, Sprague Dawley rats; conditions: 5 mg/kg iv 30 min before PAF; 3 hours
# Procedure: as §1
smiles,measurement,setting,value
"Nc1nc(N)c2nc(-c3cccc(O)c3)c(-c3cccc(O)c3)nc2n1 [6,7-bis-(3-hydroxyphenyl)-pteridine-2,4-diamine]",inhibition of edema formation in VEGF-treated animals,VEGF-induced edema,inhibit edema formation in VEGF-treated animals
same,infarct area as percentage of ischemic territory (mean±SD),"acute myocardial infarct; 0.3 mg/kg IV bolus 60 min into reperfusion, 24 hr, vehicle 62%±7",35%
same,infarct reduction with varied dosing time,acute myocardial infarct; dosing immediately at reperfusion or out to 3 hr later,Equivalent infarct reductions
same,remaining activity at 0.5 µM,"[1]; 0.5 μM, read-out: Percent Control Value at 0.5 μM",47%
same,remaining activity at 5 µM,"[1]; 5 μM, read-out: Percent Control Value at 5 μM",5%
same,"Inhibition of VEGF-induced Akt phosphorylation, time course","[2]; 5 mg/kg iv, VEGF 30, 60 or 120 min later, lung lysates",Inhibition of VEGF-induced Akt phosphorylation was seen at all time-points examined
same,"Inhibition of VEGF-induced Akt phosphorylation, dose-response","[2]; 0.5 or 5 mg/kg iv, VEGF 60 min later, lung lysates","at all 6,7-bis-(3-hydroxyphenyl)-pteridine-2,4-diamine doses examined"
same,blockade of Akt phosphorylation following VEGF delivery,[2]; general statement in description,blockade of Akt phosphorylation
same,dextran-induced increase in paw volume,[3],blocked these responses
same,PAF-induced increase in paw volume,[4],blocked these responses
